The source of these data is BindingDB's records for doi:10.3109/14756360903179393 (University of Orleans, 2010).

The target in test [1] is 5-hydroxytryptamine receptor 7 (Homo sapiens, UniProt P34969). Briefly: Radioligand Binding Assay. The method, then:
(§1) 1H nuclear magnetic resonance (NMR) and 13C NMR spectra were recorded on a Bruker Avance DPX250 spectrometer (250.131 MHz), in CDCl3 and using tetramethylsilane asinternal standard; multiplicities were determined by the DEPT 135 sequence, and chemical shifts are reported in parts per million (ppm). Coupling constants are reported in units of hertz (Hz) if applicable. Infrared (IR) spectra were recorded on a PerkinElmer Paragon 1000 PC Fourier transform infrared (FTIR) spectrometer using NaCl films or KBr pellets. Mass spectra (MS) were recorded on a PerkinElmerSCIEX AOI 300 spectrometer. Flash chromatography was performed on Merck […] (230-400 mesh) silica gel under nitrogen pressure. Thin layer chromatography (TLC)was carried out on Merck silica gel 60 F254 precoated plates. Visualization was made with ultraviolet light at 254 nm.

Test [2] concerns the target T1, 5-hydroxytryptamine receptor 1A (Rattus norvegicus, UniProt P19327).
T1 sequence (P19327 whole entry): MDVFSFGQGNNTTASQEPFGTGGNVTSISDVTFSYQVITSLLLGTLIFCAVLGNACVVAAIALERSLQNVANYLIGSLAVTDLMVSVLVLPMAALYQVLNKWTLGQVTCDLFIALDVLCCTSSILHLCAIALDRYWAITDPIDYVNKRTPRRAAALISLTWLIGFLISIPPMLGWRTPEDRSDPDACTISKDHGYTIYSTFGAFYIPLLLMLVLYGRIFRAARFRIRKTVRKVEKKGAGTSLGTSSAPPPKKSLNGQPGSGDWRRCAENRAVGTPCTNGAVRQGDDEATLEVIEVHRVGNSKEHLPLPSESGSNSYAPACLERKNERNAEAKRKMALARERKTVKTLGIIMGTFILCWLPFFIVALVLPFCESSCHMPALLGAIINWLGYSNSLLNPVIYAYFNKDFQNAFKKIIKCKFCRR
Briefly: Radioligand Binding Assay. As to the method:
as §1

Where only a bound is given, the exact number is not on record here.

Sequence of 5-hydroxytryptamine receptor 7 (P34969 whole entry): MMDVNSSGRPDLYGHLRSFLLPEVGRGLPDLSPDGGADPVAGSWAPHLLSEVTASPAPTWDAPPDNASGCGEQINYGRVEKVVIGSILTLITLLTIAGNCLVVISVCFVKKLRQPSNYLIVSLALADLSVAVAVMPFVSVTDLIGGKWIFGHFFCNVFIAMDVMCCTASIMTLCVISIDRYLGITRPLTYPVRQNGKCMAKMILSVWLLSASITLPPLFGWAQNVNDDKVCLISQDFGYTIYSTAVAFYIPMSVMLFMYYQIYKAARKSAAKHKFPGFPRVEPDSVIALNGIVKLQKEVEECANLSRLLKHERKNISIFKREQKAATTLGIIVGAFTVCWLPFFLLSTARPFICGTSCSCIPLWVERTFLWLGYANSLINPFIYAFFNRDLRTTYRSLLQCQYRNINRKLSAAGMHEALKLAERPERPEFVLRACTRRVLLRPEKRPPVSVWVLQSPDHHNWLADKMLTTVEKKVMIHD

With `O=c1[nH]c2ccccc2n1CCN1CCCN2CCCCC2C1` (stereo unspecified) [1-[2-(Octahydropyrido[1,2-a][1,4]diazepin-2-yl)ethyl]-1,3-dihydrobenzo-imidazol-2-one (8)], in test [1], the Ki – broadly, the dissociation constant of the complex between target and ligand, obtained from inhibition or displacement – was found to be 23.6 µM. Take `c1cnc2c(c1)ccn2CCN1CCCN2CCCCC2C1` (stereo unspecified) [2-(2-Pyrrolo[2,3-b]pyridin-1-ylethyl)decahydropyrido[1,2-a][1,4]diazepine (5)]: the Ki in test [1] worked out at 14 µM; in test [2], 24.5 µM.

`Brc1ccc2ccn(CCN3CCCN4CCCCC4C3)c2n1` (stereo unspecified) [2-[2-(6-Bromopyrrolo[2,3-b]pyridin-1-yl)ethyl]decahydropyrido[1,2-a][1,4]diazepine (10)]: the Ki was found to be 0.492 µM in test [1] and 14.9 µM in test [2].

`Clc1ccc2ccn(CCN3CCCN4CCCCC4C3)c2n1` (stereo unspecified) [2-[2-(6-Chloropyrrolo[2,3-b]pyridin-1-yl)ethyl]decahydropyrido[1,2-a][1,4]diazepine (11)]: the Ki in test [1] was found to be 0.16 µM; in test [2], 15 µM. The matching figures for `Clc1nccc2ccn(CCN3CCCN4CCCCC4C3)c12` (stereo unspecified) [2-[2-(7-Chloropyrrolo[2,3-c]pyridin-1-yl)ethyl]decahydropyrido[1,2-a][1,4]diazepine (6)]: 5.31 µM and 16 µM.

Turning to `c1cc2ccn(CCN3CCCN4CCCCC4C3)c2cn1` (stereo unspecified) [2-[(2-Pyrrolo[2,3-c]pyridin-1-yl)ethyl]decahydropyrido[1,2-a][1,4]diazepine (7)], the Ki in test [1] and in test [2] was more than 10 µM each time.
